Measurements reported in patent US11147796B2, “Agent for preventing or ameliorating hearing impairment” (Tohoku University, priority 2017, dated 2021).

Legend:
[1] = system: outer hair cells; assay: Survival rate of outer hair cells in cultured inner ear with cisplatin; format: cell-based, C57BL/6J mouse; settings: 48 hours
Procedure: (§1) In the following Examples 2, 3, and 5, “m.1555A>G mutant” cells were obtained by skin reproductive to a patient having “m.1555A>G mutation” to obtain dermal fibroblasts, then 10% Primary culture was carried out in DMEM (low glucose) culture solution (manufactured by Nacalai Tesque, Inc) containing FBS (Fetal bovine serum) under the condition of 5% CO2/20% O2, at 37° C. and isolated. In the following Examples 4 and 5, the inner ear culture was carried out in DMEM (high glucose) culture medium containing 10% FBS (Fetal bovine serum) under the condition of 5% CO2/20% O2, at 37° C.
(§2) [1] The inner ear of C57BL/6J mouse (hereinafter referred to as “P3 mouse”) on the third day after birth was isolated and cultured in a culture solution for 24 hours.
(§3) [2] […] Thereafter, washing with TBS (TBST) solution containing 0.3% Triton X-100 for 5 minutes was repeated twice, followed by taking photograph with a fluorescence microscope (BZ-9000, manufactured by Keyence) and observed using BZ-H1 software (manufactured by Keyence). From the obtained image, the number of cells and the number of damaged cells, each of which has a shape of 200 μm each corresponding to each part of the apex turn, the media turn, and the basilar turn, were measured and 3 parts of the cochlea (apex, media, basilar) were calculated from the survival rate (%) of the outer hair cells and the inner hair cells. […]

[2] = system: inner hair cells; assay: Survival rate of inner hair cells in cultured inner ear with cisplatin; format: cell-based, C57BL/6J mouse; settings: 48 hours
Procedure: as §1, §2, §3

[3] = cisplatin 10 μM, compound 0, 1, 5, 10, 50 μM

O=C(CC(C(=O)O)c1c[nH]c2ccccc12)c1ccc(F)cc1F (stereo not shown) [compound #5, 4-(2,4-Difluorophenyl)-2-(1H-indol-3-yl)-4-oxo-butanoic Acid]
survival rate of the outer hair cells [1, 3]: increases in a concentration-dependent manner
survival rate of the outer hair cells ([1]; compound 10 μM, cisplatin 0, 5, 7.5, 10, 15, 20 μM, apex, media, basilar): increased as compared with the DMSO-treated group
survival rate of the inner hair cells [2, 3]: almost no change in survival rate
survival rate of the inner hair cells ([2]; compound 10 μM, cisplatin 0, 5, 7.5, 10, 15, 20 μM, vs DMSO-treated group): hardly any difference
